The values below come from patent US20230115416A1, “COMPOSITIONS AND METHODS FOR PROMOTING CELLULAR METABOLIC FITNESS” (priority 2021, published 2023).

One data set deals with NMDAR. The following applies: by blocking adenosine receptor; cited from earlier work.
A further data set addresses NMDAR glycine site (Homo sapiens, UniProt Q05586). The experiment in a line: Modulation of the NMDAR glycine site in embodiments. The note with it: in embodiments of the invention.
A short description of data set [1]: Tinnitus side effect of CMF modulator treatment. In kind it is in vivo, human.
In the next data set the test system is hair regrowth. The note with it: topical petroleum jelly composition, up to 10% by weight, shaved skin of mice; cited from earlier work.
Another data set relates to NMDAR glutamate site. The following applies: laboratory studies; cited from earlier work.

For `Cn1c(=O)c2c(ncn2C)n(C)c1=O` [Caffeine], the NMDAR stimulation result in the data set with NMDAR was “stimulates NMDAR at low micromolar concentrations”. Turning to `NCCS(=O)(=O)O` [Taurine], the “modulation of the NMDAR glycine site” value on NMDAR glycine site is on record as “stronger negative modulation effects”. As for `N[C@@H](CCC(=O)O)C(=O)O` [glutamic acid], the tinnitus result in data set [1] (dosed sublingually or topically) was “issues related to tinnitus have been observed”. The “rate of hair regrowth” value with hair regrowth is recorded as “increases the rate of hair regrowth”. For `O=C1CC[C@@H](C(=O)O)N1` [pyroglutamic acid], in data set [1] (dosed orally), the tinnitus result is given as “issues related to tinnitus have been observed”. The “modulation of the NMDAR glutamate site” value with NMDAR glutamate site is “negative modulator”.
